Columns and labels:
Assay in all cases: MIC of each active ingredient (NCCLS agar plates)
Assay type in all cases: cell-based
[1] = system: Malassezia; details: at the concentrations tested
Description: (§1) An in vitro microbiology study of the combination of the Enrofloxacin (quinolone) and sulfadiazine was conducted on multiple canine otic pathogens. The study was conducted under the National Committee for Clinical Laboratory Standards (NCCLS) guidelines employing ATCC control organisms for each agar plate tested. Initially, minimum inhibitory concentrations (MICs) were established for each active ingredient.

[2] = system: Candida; details: at the concentrations tested
Description: as §1

[3] = system: common dermal (otic) pathogens
Description: as §1

CCN1CCN(c2cc3c(cc2F)c(=O)c(C(=O)O)cn3C2CC2)CC1 [Enrofloxacin]
Effectiveness on Malassezia [1]: not effective | Effectiveness on Candida [2]: not effective | Activity on common dermal (otic) pathogens, based on MICs [3]: active
